From publication PMC6274087, “New Phragmalin-Type Limonoids from Chukrasia tabularis and Their α-Glucosidase Inhibitory Activity” (Molecules, 2016)

Key:
α-glucosidase = assay: in vitro α-glucosidase inhibitory assay (4-nitrophenyl-α-D-glucopyranoside substrate, OD at 405 nm); conditions: for α-glucosidase inhibitory activity (result in words): bioactivity screening; for IC50: read-out: IC50 Value, α-glucosidase inhibitory activity, mean ± SD of triplicate experiments, acarbose as positive control
Description: The optimized procedure was as follows: 20 μL of 0.2 U/mL α-glucosidase has been added into 0.1mM potassium phosphate buffer (pH 6.8, 112 μL), then mixed with the testing sample (8 μL). After being preincubated at 37 °C for 15 min, 20 μL of 2.5 mmol/L 4-nitrophenyl-α-D-glucopyranoside was added and then mixed. The reaction was carried out at 37 °C for 15 min and stopped by adding 0.2 M solution of Na2CO3 (80 μL). The optical density values of the reaction mixture were the mean values of three measurements, which were performed at 405 nm wavelength.

## COC(=O)C(OC(C)=O)C1C2(C)CC3(O)C(OC(=O)C(C)C)(C2OC(C)=O)C2OC4(C)OC5(C(OC(C)=O)C(OC(C)=O)C67CC6(C(OC(C)=O)C(=O)OC7c6ccoc6)C25O4)C13C (stereo not drawn) [Compound 5, Chukbularisin E]
other
  melting point: 208 to 209 °C
α-glucosidase
  α-glucosidase inhibitory activity (result in words): showed inhibitory activities
  IC50: 1090 ± 40 µM

## COC(=O)CC1C2(C)CC3(O)C(O)(C2OC(C)=O)C(OC(=O)C(C)C)C24OC5(C)OC(C(OC(C)=O)C67CC62C(OC(=O)C(C)C)C(=O)OC7c2ccoc2)C4(O5)C13C (stereo not drawn) [Compound 3, Chukbularisin C]
other
  melting point: 198 to 199 °C
α-glucosidase
  α-glucosidase inhibitory activity (result in words): showed inhibitory activities
  IC50: 40 ± 2 µM

## COC(=O)C(OC(C)=O)C1C2(C)CC34OC5(C)OC6(C(O)C(OC(C)=O)C78CC7(C(OC(C)=O)C(=O)OC8c7ccoc7)C6(O5)C(OC(=O)C(C)C)C3(O)C2OC(C)=O)C14C (stereo not drawn) [Compound 8, chubularisin K]
α-glucosidase
  α-glucosidase inhibitory activity (result in words): showed inhibitory activities
  IC50: 200 ± 57 µM

## COC(=O)C(OC(C)=O)C1C2(C)CC3(O)C(O)(C2OC(C)=O)C2OC4(C(C)C)OC5(C(OC(C)=O)C(OC(C)=O)C67CC6(C(OC(C)=O)C(=O)OC7c6ccoc6)C25O4)C13C (stereo not drawn) [Compound 4, Chukbularisin D]
other
  melting point: 190 to 191 °C
α-glucosidase
  α-glucosidase inhibitory activity (result in words): showed inhibitory activities
  IC50: 520 ± 39 µM

## CC(=O)OC1C2(C)CC34OC5(C)OC6(C7CC(=O)OC(c8ccoc8)C7(C)CCC6(O5)C35OC(=O)CC25)C(OC(=O)C(C)C)C14O (stereo not drawn) [Compound 2, Chukbularisin B]
other
  melting point: 185 to 186 °C
α-glucosidase
  α-glucosidase inhibitory activity (result in words): showed inhibitory activities
  IC50: 60 ± 8 µM

## CC(=O)OC(C1=CC(O)OC1=O)C1(C)C(OC(C)=O)C(OC(C)=O)C2(O)C34OC(C)(CC13)OC4C1(OC(C)=O)C(OC(C)=O)C3(C)CC1(O)C21COC(=O)CC31 (stereo not drawn) [Compound 1, Chukbularisin A]
other
  melting point: 201 to 203 °C
